The source of these data is patent US7741294B1, “Non-standard nucleobases implementing the isocytidine and isoguanosine hydrogen bonding patterns” (priority 2005, dated 2010).

Where two headings read alike, the source gives them in different places.

The nature of series [1]: pKa by spectrophotometric titration. The series is classed as physicochemical. The following applies: pH 2.8 to 13.7, 240-350 nm. How it is done: The pKa of the nucleoside analog was determined by spectrophotometric titration (pH 2.8 to 13.7) [Kazimierczuk, Z., Shugar, D. (1974) Acta Biochim. Pol., 21, 455-463.1 at 240-350 nm to give values for pK1 and pK2 as 4.3 (±0.1) and 9.9 (±0.2), respectively.

Series [2] in a line: keto:enol tautomeric equilibrium from UV spectra in dioxane:water mixtures, extrapolated to pure water. The series is classed as physicochemical. As to conditions: log fraction of enol vs ET(30), extrapolated to ET(30) of pure water (63.1). An excerpt: The procedure of Voegel et al. [Voegel, J. J., von Krosigk, U., Benner, S. A. (1993) J. Org. Chem., 58, 7542-7547.] was then used to estimate a value of the keto:enol tautomers in pure water for dC7 isoG. This procedure exploits the fact that in nonpolar solvents, the UV spectra for both disoG and C7 isoG shift from their form in pure water (which resembles the N-methylated derivatives) to a form that resembles the UV spectra of the O-methylated derivatives. This is interpreted as evidence that the tautomeric equilibrium shifts from one favoring the keto tautomer in pure water to one favoring the enol tautomer in pure dioxane.
To obtain quantitative data, the ratio of the extinction coefficients at two wavelengths (λ=296 and 255 nm for disoG and λ=305 and 254 nm for dC7 isoG), chosen to maximize the difference between the keto and enol forms, was chosen as a metric for the tautomeric equilibrium constant in dioxane:water mixtures in varying proportions. This was plotted against the Dimroth ET(30) value, which provides a measure of the local dielectric constant [Kosower, E. M. (1958) J. Am. Chem. Soc., 80, 3253-3260] [Dimroth, v. K., Reichardt, C., Siepmann, T., Bohlmann, F. (1963) Liebigs Ann. Chem., 661, 1-37.] [Reichardt, C., Harbusch-Goernert, E. (1983) Liebigs Ann. Chem., 721-743] [Gordon, A., Katritzky, A. R. (1968) Tetrahedron Lett., 23, 2767-2770.] […]

The conditions of series [3]: comparison value for the natural nucleoside; cited from earlier work.

In the case of `Nc1[nH]c(=O)nc2c1ccn2[C@H]1C[C@H](O)[C@@H](CO)O1` [dC7 isoG, 2′-deoxy-7-deaza-isoguanosine], in series [1], the pK1 is on record as 4.3 (±0.1) and the pK2 was 9.9 (±0.2). In addition, the “KTAUT (=[keto]/[enol])” value in series [2] is reported as “≈ 10^3”.

For the compound `Nc1nc2c(ncn2[C@@H]2O[C@H](CO)[C@@H](O)[C@H]2O)c(=O)[nH]1` [guanosine], the “KTAUT (=[keto]/[enol])” value in series [3] is on record as 10^4-10^5.
